Laboratory results from paper PMC8429728, “TNK1 is a ubiquitin-binding and 14-3-3-regulated kinase that can be targeted to block tumor growth” (Nature Communications, 2021).
Where two headings read alike, the source gives them in different places.

Experiments:
Assay in all cases: biochemical
Design in all cases: Reaction Biology 371-kinase panel at Km ATP, per cent enzyme activity relative to DMSO, single dose in duplicate
[1] = biological target: EPHA5 (Homo sapiens, UniProt P54756); settings: duplicate measurements, Km ATP
Outline: (§1)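 Percent kinase activity relative to vehicle (DMSO) is reported for a 371-kinase in vitro panel at 300 nM compound; IC50 values derive from variable-slope sigmoidal fits with the lower plateau fixed at 0.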

[2] = biological target: BRAF (Homo sapiens, UniProt P15056); settings: duplicate measurements, Km ATP
Outline: as §1

[3] = biological target: TYRO3/SKY (Homo sapiens, UniProt Q06418); settings: duplicate measurements, Km ATP; read-out: % Enzyme Activity (relative to DMSO controls) / TP-0005801 (0.3µM) / Data 1
Outline: as §1

[4] = biological target: MARK2/PAR-1Ba (Homo sapiens, UniProt Q7KZI7); settings: duplicate measurements, Km ATP
Outline: as §1

[5] = biological target: T1, RSK3 (Homo sapiens, UniProt Q15349); settings: duplicate measurements, Km ATP
T1 construct: gene RPS6KA2
Outline: as §1

[6] = biological target: DDR1 (Homo sapiens, UniProt Q08345); settings: duplicate measurements, Km ATP
Outline: as §1

[7] = biological target: KSR2 (Homo sapiens, UniProt Q6VAB6); settings: duplicate measurements, Km ATP
Outline: as §1

[8] = biological target: BMX/ETK (Homo sapiens, UniProt P51813); settings: duplicate measurements, Km ATP
BMX/ETK, sequence (P51813 whole entry): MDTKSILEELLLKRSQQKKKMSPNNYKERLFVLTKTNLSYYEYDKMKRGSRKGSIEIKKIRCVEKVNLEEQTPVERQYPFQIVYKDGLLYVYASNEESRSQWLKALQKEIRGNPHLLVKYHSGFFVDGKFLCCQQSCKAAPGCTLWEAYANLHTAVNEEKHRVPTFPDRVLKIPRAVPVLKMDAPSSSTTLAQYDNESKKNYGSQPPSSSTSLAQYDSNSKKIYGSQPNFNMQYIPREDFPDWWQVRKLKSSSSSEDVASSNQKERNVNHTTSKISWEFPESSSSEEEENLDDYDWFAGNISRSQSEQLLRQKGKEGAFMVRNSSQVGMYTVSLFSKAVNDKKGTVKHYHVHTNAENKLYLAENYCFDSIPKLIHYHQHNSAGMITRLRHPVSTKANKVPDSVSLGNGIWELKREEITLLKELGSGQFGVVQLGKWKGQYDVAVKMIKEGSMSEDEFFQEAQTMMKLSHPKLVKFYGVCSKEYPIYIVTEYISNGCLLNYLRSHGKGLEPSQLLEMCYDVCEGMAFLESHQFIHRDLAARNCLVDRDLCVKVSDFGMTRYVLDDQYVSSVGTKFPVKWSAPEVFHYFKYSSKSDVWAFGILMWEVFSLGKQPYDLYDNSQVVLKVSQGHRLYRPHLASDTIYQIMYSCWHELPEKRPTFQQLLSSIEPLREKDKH
Outline: as §1

[9] = biological target: NEK3 (Homo sapiens, UniProt P51956); settings: duplicate measurements, Km ATP
NEK3, sequence (P51956 whole entry): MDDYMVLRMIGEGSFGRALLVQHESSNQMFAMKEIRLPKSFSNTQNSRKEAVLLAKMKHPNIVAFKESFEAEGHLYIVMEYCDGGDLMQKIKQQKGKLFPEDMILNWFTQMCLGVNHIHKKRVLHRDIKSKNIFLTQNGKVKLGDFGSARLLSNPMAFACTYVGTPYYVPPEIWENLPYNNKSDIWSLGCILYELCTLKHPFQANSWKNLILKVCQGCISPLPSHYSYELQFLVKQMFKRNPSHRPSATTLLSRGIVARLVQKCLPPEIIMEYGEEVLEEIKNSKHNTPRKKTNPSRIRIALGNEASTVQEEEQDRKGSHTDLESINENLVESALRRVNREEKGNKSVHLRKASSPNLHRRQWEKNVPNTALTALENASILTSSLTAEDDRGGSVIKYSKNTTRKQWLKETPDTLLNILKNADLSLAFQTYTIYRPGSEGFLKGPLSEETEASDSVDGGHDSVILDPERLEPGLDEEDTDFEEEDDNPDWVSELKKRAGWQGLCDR
Outline: as §1

[10] = biological target: GRK6 (Homo sapiens, UniProt P43250); settings: duplicate measurements, Km ATP
GRK6, sequence (P43250 whole entry): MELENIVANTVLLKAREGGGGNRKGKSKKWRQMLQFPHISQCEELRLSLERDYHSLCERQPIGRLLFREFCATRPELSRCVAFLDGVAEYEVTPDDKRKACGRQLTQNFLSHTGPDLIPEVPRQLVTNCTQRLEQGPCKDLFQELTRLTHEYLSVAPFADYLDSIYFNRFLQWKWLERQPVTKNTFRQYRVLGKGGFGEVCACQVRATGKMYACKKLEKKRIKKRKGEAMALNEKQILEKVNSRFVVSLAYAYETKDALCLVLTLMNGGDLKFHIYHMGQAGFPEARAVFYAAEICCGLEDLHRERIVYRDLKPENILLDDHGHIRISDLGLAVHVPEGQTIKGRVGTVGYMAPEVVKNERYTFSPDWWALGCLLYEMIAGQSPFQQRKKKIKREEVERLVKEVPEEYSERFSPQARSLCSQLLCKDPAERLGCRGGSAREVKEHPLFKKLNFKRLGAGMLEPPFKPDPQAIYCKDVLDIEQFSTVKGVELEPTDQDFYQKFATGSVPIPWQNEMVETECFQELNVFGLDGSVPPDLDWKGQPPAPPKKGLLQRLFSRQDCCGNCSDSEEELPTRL
Outline: as §1

[11] = biological target: PKN2/PRK2 (Homo sapiens, UniProt Q16513); settings: duplicate measurements, Km ATP
PKN2/PRK2, sequence (Q16513 whole entry): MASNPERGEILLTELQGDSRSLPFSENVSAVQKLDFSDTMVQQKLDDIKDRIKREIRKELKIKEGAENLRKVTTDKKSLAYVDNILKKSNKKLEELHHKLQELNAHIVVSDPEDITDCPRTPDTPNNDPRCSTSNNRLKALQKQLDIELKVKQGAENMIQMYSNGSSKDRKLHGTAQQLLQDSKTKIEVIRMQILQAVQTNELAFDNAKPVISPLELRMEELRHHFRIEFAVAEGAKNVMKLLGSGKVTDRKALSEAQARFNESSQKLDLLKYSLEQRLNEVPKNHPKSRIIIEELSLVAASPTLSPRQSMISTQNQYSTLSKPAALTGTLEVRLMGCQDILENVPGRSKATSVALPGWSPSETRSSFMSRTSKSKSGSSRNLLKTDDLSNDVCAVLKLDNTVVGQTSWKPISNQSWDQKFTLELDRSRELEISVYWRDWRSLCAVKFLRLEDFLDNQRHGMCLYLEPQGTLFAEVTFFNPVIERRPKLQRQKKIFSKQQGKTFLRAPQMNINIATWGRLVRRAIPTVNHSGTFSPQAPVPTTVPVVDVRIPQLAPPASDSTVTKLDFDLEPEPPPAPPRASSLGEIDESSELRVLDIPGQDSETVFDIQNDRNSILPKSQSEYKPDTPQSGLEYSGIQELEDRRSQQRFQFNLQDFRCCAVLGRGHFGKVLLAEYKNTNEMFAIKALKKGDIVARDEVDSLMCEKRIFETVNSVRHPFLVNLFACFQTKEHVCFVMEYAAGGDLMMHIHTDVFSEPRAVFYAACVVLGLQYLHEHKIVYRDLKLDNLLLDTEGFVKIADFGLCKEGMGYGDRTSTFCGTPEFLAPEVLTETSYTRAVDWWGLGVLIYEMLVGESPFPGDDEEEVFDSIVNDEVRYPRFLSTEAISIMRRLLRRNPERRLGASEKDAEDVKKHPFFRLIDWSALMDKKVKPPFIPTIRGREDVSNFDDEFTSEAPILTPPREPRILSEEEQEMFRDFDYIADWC
Outline: as §1

[12] = biological target: CAMK4 (Homo sapiens, UniProt Q16566); settings: duplicate measurements, Km ATP
CAMK4, sequence (Q16566 whole entry): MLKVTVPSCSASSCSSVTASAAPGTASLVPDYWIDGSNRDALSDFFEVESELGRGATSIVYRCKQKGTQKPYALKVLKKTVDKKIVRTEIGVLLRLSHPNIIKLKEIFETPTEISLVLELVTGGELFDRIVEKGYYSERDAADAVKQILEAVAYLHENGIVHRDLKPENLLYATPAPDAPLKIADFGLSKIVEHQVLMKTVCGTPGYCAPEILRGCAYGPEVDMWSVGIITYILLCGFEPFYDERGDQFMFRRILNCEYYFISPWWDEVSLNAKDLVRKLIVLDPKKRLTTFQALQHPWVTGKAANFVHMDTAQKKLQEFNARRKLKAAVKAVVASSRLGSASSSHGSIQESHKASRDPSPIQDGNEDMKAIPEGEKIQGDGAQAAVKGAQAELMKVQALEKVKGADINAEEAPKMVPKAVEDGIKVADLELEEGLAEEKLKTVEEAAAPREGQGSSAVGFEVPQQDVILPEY
Outline: as §1

[13] = biological target: CDK2/CYCLIN E (Homo sapiens, UniProt P24941); settings: duplicate measurements, Km ATP
Outline: as §1

[14] = biological target: PDK1/PDPK1 (Homo sapiens, UniProt O15530); settings: duplicate measurements, Km ATP
Outline: as §1

[15] = biological target: TXK (Homo sapiens, UniProt P42681); settings: duplicate measurements, Km ATP
Outline: as §1

[16] = biological target: CDK4/cyclin D3 (Homo sapiens, UniProt P11802); settings: duplicate measurements, Km ATP
CDK4/cyclin D3, sequence (P11802 whole entry): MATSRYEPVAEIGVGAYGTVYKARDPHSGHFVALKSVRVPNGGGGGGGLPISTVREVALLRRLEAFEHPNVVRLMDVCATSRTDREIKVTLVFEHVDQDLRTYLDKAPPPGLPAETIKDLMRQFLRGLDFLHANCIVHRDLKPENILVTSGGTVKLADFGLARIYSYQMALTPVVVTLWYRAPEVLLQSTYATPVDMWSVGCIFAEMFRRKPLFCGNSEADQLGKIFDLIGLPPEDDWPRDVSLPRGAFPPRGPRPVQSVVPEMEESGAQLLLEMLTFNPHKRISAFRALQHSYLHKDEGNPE
CDK4/cyclin D3, sequence (P30281 whole entry partner): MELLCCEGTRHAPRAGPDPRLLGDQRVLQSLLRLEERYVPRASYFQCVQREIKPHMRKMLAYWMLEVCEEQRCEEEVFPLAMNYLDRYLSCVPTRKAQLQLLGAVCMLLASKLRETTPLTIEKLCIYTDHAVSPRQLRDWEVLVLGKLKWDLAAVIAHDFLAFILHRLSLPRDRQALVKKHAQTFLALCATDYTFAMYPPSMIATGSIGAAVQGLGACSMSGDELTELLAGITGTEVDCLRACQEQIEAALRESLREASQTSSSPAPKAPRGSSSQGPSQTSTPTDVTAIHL
Outline: as §1

[17] = biological target: T2, MEK1 (Homo sapiens, UniProt Q02750); settings: duplicate measurements, Km ATP
T2 construct: gene MAP2K1
Outline: as §1

[18] = biological target: FYN (Homo sapiens, UniProt P06241); settings: duplicate measurements, Km ATP
Outline: as §1

[19] = biological target: CAMK1d (Homo sapiens, UniProt Q8IU85); settings: duplicate measurements, Km ATP
CAMK1d, sequence (Q8IU85 whole entry): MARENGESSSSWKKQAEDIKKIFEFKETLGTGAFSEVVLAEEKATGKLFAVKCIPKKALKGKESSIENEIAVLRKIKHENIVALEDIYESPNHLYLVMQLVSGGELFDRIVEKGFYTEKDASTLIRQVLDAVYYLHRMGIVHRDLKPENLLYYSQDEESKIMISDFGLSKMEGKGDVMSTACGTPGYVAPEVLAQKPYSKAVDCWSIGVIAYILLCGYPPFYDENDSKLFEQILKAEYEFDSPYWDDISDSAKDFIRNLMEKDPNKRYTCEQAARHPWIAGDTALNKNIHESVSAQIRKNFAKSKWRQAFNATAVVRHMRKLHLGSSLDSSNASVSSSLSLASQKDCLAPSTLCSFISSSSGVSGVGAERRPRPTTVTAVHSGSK
Outline: as §1

[20] = biological target: Haspin (Homo sapiens, UniProt Q8TF76); settings: duplicate measurements, Km ATP
Haspin, sequence (Q8TF76 whole entry): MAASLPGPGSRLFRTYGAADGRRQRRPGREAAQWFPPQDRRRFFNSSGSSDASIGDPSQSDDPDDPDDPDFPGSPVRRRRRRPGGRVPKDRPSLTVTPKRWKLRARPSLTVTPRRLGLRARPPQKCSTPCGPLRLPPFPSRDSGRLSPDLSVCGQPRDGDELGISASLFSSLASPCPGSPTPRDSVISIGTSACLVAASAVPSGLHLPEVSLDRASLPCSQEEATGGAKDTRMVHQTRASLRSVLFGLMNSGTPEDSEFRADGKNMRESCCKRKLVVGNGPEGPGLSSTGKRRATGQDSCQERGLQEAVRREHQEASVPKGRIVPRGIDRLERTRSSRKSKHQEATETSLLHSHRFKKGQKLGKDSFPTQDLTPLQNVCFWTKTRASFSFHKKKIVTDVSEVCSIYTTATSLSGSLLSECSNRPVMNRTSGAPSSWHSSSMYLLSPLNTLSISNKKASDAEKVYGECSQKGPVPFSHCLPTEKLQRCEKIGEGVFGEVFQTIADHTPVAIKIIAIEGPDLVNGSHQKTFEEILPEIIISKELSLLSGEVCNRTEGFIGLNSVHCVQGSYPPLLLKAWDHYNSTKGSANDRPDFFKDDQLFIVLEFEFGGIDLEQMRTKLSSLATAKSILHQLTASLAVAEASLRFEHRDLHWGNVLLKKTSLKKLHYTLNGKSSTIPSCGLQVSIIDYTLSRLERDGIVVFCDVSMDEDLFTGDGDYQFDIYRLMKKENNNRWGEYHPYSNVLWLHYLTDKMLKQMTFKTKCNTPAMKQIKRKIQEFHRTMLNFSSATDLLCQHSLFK
Outline: as §1

[21] = read-out: % Enzyme Activity (relative to DMSO controls) / TP-0005801 (0.3µM) / Data 1
[22] = read-out: % Enzyme Activity (relative to DMSO controls) / TP-0005801 (0.3µM) / Data 2

**Q.** How did the remaining activity at 0.3 µM [1, 21] turn out when `COc1cc(N2CCN(C)CC2)c(C)cc1Nc1ncc(Br)c(Nc2cccnc2N(C)C)n1` [TP-5801] was run?
**A.** Its remaining activity at 0.3 µM is 122%.

**Q.** What about the remaining activity at 0.3 µM [1, 22] of the same molecule?
**A.** The remaining activity at 0.3 µM was 117%.

**Q.** And the remaining activity at 0.3 µM [2, 21]?
**A.** The remaining activity at 0.3 µM was 87.3%.

**Q.** What about the remaining activity at 0.3 µM [2, 22] of the same molecule?
**A.** Its remaining activity at 0.3 µM is 85.1%.

**Q.** And the remaining activity at 0.3 µM [3]?
**A.** The remaining activity at 0.3 µM was 105%.

**Q.** What about the remaining activity at 0.3 µM [4, 21] of the same molecule?
**A.** Its remaining activity at 0.3 µM is 93.2%.

**Q.** And the remaining activity at 0.3 µM [4, 22]?
**A.** The remaining activity at 0.3 µM was 92.1%.

**Q.** What about the remaining activity at 0.3 µM [5, 21] of the same molecule?
**A.** The remaining activity at 0.3 µM was 80.3%.

**Q.** And the remaining activity at 0.3 µM [5, 22]?
**A.** Its remaining activity at 0.3 µM is 79.2%.

**Q.** And the remaining activity at 0.3 µM [6, 21]?
**A.** Its remaining activity at 0.3 µM is 74.4%.

**Q.** And the remaining activity at 0.3 µM [6, 22]?
**A.** Its remaining activity at 0.3 µM is 74.1%.

**Q.** What about the remaining activity at 0.3 µM [7, 21] of the same molecule?
**A.** Its remaining activity at 0.3 µM is 96.9%.

**Q.** What about the remaining activity at 0.3 µM [7, 22] of the same molecule?
**A.** The remaining activity at 0.3 µM was 94.2%.

**Q.** What about the remaining activity at 0.3 µM [8, 21] of the same molecule?
**A.** Its remaining activity at 0.3 µM is 115%.

**Q.** And the remaining activity at 0.3 µM [8, 22]?
**A.** Its remaining activity at 0.3 µM is 114%.

**Q.** What about the remaining activity at 0.3 µM [9, 21] of the same molecule?
**A.** Its remaining activity at 0.3 µM is 89%.

**Q.** What about the remaining activity at 0.3 µM [9, 22] of the same molecule?
**A.** Its remaining activity at 0.3 µM is 88%.

**Q.** And the remaining activity at 0.3 µM [10, 21]?
**A.** The remaining activity at 0.3 µM was 86.9%.

**Q.** And the remaining activity at 0.3 µM [10, 22]?
**A.** The remaining activity at 0.3 µM was 83.9%.

**Q.** And the remaining activity at 0.3 µM [11, 21]?
**A.** Its remaining activity at 0.3 µM is 97.2%.

**Q.** What about the remaining activity at 0.3 µM [11, 22] of the same molecule?
**A.** Its remaining activity at 0.3 µM is 95.9%.

**Q.** And the remaining activity at 0.3 µM [12, 21]?
**A.** Its remaining activity at 0.3 µM is 96.9%.

**Q.** And the remaining activity at 0.3 µM [12, 22]?
**A.** The remaining activity at 0.3 µM was 94.7%.

**Q.** What about the remaining activity at 0.3 µM [13, 21] of the same molecule?
**A.** The remaining activity at 0.3 µM was 91.7%.

**Q.** What about the remaining activity at 0.3 µM [13, 22] of the same molecule?
**A.** The remaining activity at 0.3 µM was 91.2%.

**Q.** And the remaining activity at 0.3 µM [14, 21]?
**A.** Its remaining activity at 0.3 µM is 89.9%.

**Q.** What about the remaining activity at 0.3 µM [14, 22] of the same molecule?
**A.** The remaining activity at 0.3 µM was 89.6%.

**Q.** And the remaining activity at 0.3 µM [15, 21]?
**A.** Its remaining activity at 0.3 µM is 114%.

**Q.** What about the remaining activity at 0.3 µM [15, 22] of the same molecule?
**A.** The remaining activity at 0.3 µM was 112%.

**Q.** What about the remaining activity at 0.3 µM [16, 21] of the same molecule?
**A.** The remaining activity at 0.3 µM was 91.7%.

**Q.** And the remaining activity at 0.3 µM [16, 22]?
**A.** Its remaining activity at 0.3 µM is 90.8%.

**Q.** What about the remaining activity at 0.3 µM [17, 21] of the same molecule?
**A.** The remaining activity at 0.3 µM was 95.7%.

**Q.** What about the remaining activity at 0.3 µM [17, 22] of the same molecule?
**A.** Its remaining activity at 0.3 µM is 95.5%.

**Q.** And the remaining activity at 0.3 µM [18, 21]?
**A.** Its remaining activity at 0.3 µM is 108%.

**Q.** And the remaining activity at 0.3 µM [18, 22]?
**A.** Its remaining activity at 0.3 µM is 105%.

**Q.** And the remaining activity at 0.3 µM [19, 21]?
**A.** Its remaining activity at 0.3 µM is 75.7%.

**Q.** What about the remaining activity at 0.3 µM [19, 22] of the same molecule?
**A.** Its remaining activity at 0.3 µM is 73.7%.

**Q.** What about the remaining activity at 0.3 µM [20, 21] of the same molecule?
**A.** The remaining activity at 0.3 µM was 88.2%.

**Q.** What about the remaining activity at 0.3 µM [20, 22] of the same molecule?
**A.** The remaining activity at 0.3 µM was 86.9%.
